Laboratory results from patent US8084602B2, “Porphyrin derivatives and their use in photodynamic therapy” (Destiny Pharma Limited, priority 2002, dated 2011).
Like-named read-outs stand apart in the source and are kept apart here.

Columns and labels:
E. coli ATCC 25922 = test: Cell survival (colony forming unit) with or without illumination; assay type: cell-based, Escherichia coli; details: E. coli
Procedure: (§1) The toxic effects of exemplary compounds of the invention against two bacterial strains, the Gram negative bacterium Escherichia coli (strain ATCC 25922) and the Gram positive bacterium Staphylococcus aureus (methicillin-resistant strain ATTC BAA-44), were evaluated by measuring the extent of growth inhibition (bacteriostatic effect) and growth […] (cytocidal effect) in the dark and upon light exposure. Initial compound screening was undertaken using white light [390-740 nm] (150 mW/cm^2) for various timepoints of a concentration of 3 μM (see Table 1). Further experiments were undertaken on those compounds identified from this initial screen using a light source emitting light at a wavelength between 417-420 nm at 15.2 mW/cm^2, 13.68 J/cm^2 (Waldmann Eclairage SA, France) (see Table 20.
(§2) For the further investigation of the exemplary compounds (Table 2), the following protocol was adopted: • (i) Bacteria (S. aureus BAA-44 and E. coli 25922) were grown in brain heart infusion (BHI) broth until they reached the stationary phase of growth. • (ii) The cells were harvested by centrifugation (3000 g for 15 min) with a table centrifuge, washed with 10 mM PBS at pH 7.4 containing 2.7 mM KCl and 0.14 M NaCl and suspended in PBS at an optical density of 0.7 at 650 nm corresponding to 10^8-10^9 cells/ml. • (iii) The bacteria, at the desired cell density (˜10^8 cells/ml) were incubated for 5 min in the dark with various concentrations of the exemplary compounds. • (iv) At the end of the incubation period the cells were washed three times with PBS, suspended in PBS, transferred into a 96-well microtitre plate (200 μl/well) and illuminated for 15 min with the Waldmann light source (15.2 mW/cm^2; 13.7 J/cm^2). The cells were illuminated from the bottom of the plate laying it on the glass cover of the lamp. • (v) After illumination, cell survival was determined by plating serially diluted aliquots of treated and untreated (i.e. no exemplary compound or light present) cells onto brain heart agar (BHA) and counting the number of colonies after 18-24 h incubation at 37° C.
(§3) the above colony forming unit (CFU) protocol was also used to investigate the photodynamic activity of very low concentrations of the compounds of the invention.

[1] = Chemical stability, qualitative stress tests (HPLC, LC-MS); assay type: physicochemical; details: solid, aqueous solution and PBS; 7 days each at 50° C., 70° C., 90° C.
Procedure: The following HPLC methodology was established for the analysis of the exemplary compounds of the invention.
The method involves detection by UV at a wavelength of 420 nm, which is very specific for these compounds. In order to monitor impurities not related to the porphyrin structure (and therefore not absorbing at 420 nm) UV spectra of the whole chromatograms were also recorded between 200 nm and 700 nm by DAD (diode array detector) in certain experiments.
Qualitative stress tests were undertaken on the exemplary compounds of the invention. Analysis was undertaken by HPLC & LC-MS. The compounds were stress tested in solid form, in an aqueous solution and a solution made up in phosphate-buffered saline buffer. The samples were initially incubated for 7 days at 50° C. and a sample removed for testing. The samples were then incubated for a further 7 days at 70° C., samples removed as before and the samples incubated further for 7 days at 90° C. HPLC analysis of freshly prepared solutions was undertaken and compared to the samples after 7, 14 and 21 days incubation. A visual comparison of the chromatograms was then undertaken and the content of the main products and by-products as area percentage values determined (see FIG. 11).

[2] = system: normal human epidermal keratinocytes (NHEK); test: Toxicity against human skin cells, MTT-assay; assay type: cell-based
Procedure: (§4) Test compounds were screened for toxicity against cultured human skin cells using normal human epidermal keratinocytes (NHEK) and normal human dermal fibroblasts (NHDF), purchased from CellSystems Biotechnologie GmbH, Germany.
(§5) The NHEK and NHDF cells were used between passages 3 and 10. The cells were seeded with 7.5 and/or 15×10^4 cells/well (microtitreplate) and allowed to attach overnight in an incubator (37° C., 5% CO2). […]
(§6) Phototoxicity was tested by standard MTT-assay (Mossman et al., 1983, Immunological Methods 65:55-63). MTT is an indicator of metabolically active cells. Dependent on enzyme activity in mitochondria a colour reaction can be visualised, which can be measured by ELISA reader (540 nm). The cell viability data were normalised, i.e. the OD values of cells after PDT without photosensitisers were adjusted to one. Each experiment was repeated three times.

[3] = system: normal human dermal fibroblasts (NHDF); test: Toxicity against human skin cells, MTT-assay; assay type: cell-based
Procedure: as §4, §5, §6

[4] = system: bacterial cells compared to human skin cells; test: Selectivity for bacteria compared to human skin cells; assay type: cell-based
Procedure: as §2, §4
The NHEK and NHDF cells were used between passages 3 and 10. The cells were seeded with 7.5 and/or 15×10^4 cells/well (microtitreplate) and allowed to attach overnight in an incubator (37° C., 5% CO2). After incubation with different concentrations of the selected photosensitisers, the cells were illuminated for fifteen minutes (Light source 236, Waldmann; 15.2 mW/cm^2, 13.7 J/cm^2) and then incubated for 24 hours in the dark.
as §6

[5] = system: S. aureus ATCC BAA-44 (a methicillin resistant S. aureus); test: Cell survival (colony forming unit) with or without illumination; assay type: cell-based, Staphylococcus aureus; details: S. aureus
Procedure: as §1, §2, §3

[6] = system: Staphylococcus aureus (methicillin-resistant strain ATTC BAA-44); test: Initial screening: growth inhibition after white light illumination; assay type: cell-based; details: Staphylococcus aureus
Procedure: as §1
(§7) The following protocol was used for the initial screening of the exemplary compounds (Table 1) (see Reddi et al., 2002, Photochem. Photobiol. 75(5):462-470): • (i) E. coli and S. aureus cells were grown overnight on brain heart infusion agar, resuspended in brain heart infusion broth, harvested by centrifugation (3000 g for 15 minutes) and washed once with phosphate buffered saline (PBS) at pH 7.4 consisting 2.7 mM KCl and 0.14 M NaCl. • (ii) The cells were then resuspended in PBS to an optical density at 650 nm of 0.7, which corresponds to a density of 10^8 to 10^9 cells/ml. • (iii) Next, the cells were incubated in PBS in the dark for 5 minutes with 3.0 μM of the compound to be tested. • (iv) After dark incubation, cells were illuminated with white light (wavelength: 390 to 740 nm) (150 mW/cm^2) for up to 30 minutes. During illumination, the cells were kept at 37° C. and magnetically stirred. • (v) Finally, treated and untreated (control) cells were diluted in brain heart infusion broth and maintained at […] while the absorbance of the suspension at 650 nm was monitored at predetermined time points for determining growth curves.
(§8) The percent of growth inhibition in the treated cells was calculated by the following equation: [1−(Ax−A0)/(Ac−A0)]×100 where Ax Ac are the absorbances measured after 3 hours incubation, for the treated and control cell suspensions, respectively, and A0 represents the initial absorbance.

[7] = system: Escherichia coli (strain ATCC 25922); test: as above; assay type: cell-based; details: Escherichia coli
Procedure: as §1, §7, §8

[8] = dark toxicity (no illumination), 1 μM
[9] = photodynamic activity, 1 μM, illumination 15 min
[10] = dark toxicity, 1 μM, no illumination
[11] = dark toxicity, 10 μM, no illumination
[12] = photodynamic activity (light toxicity), 0.01 μM, illumination 15 min
[13] = photodynamic activity (light toxicity), 0.1 μM, illumination 15 min
[14] = photodynamic activity (light toxicity), 1 μM, illumination 15 min
[15] = photodynamic activity, 0.1 μM, illumination 15 min
[16] = dark toxicity (no illumination), 10 μM

Compound	Survival [2, 10] [%]	Survival [2, 11] [%]	Survival [2, 12] [%]	Survival [2, 13] [%]	Survival [2, 14] [%]	Survival [3, 10] [%]	Survival [3, 11] [%]	Survival [3, 12] [%]	Survival [3, 13] [%]	Survival [3, 14] [%]	Log reduction [5, 8]	Log reduction [5, 15]	Log reduction [5, 9]	Log reduction [5, 16]	also measured
C[N+](C)(C)CCCOc1cccc(-c2c3nc(cc4ccc([nH]4)c(-c4cccc(OCCC[N+](C)(C)C)c4)c4nc(cc5ccc2[nH]5)C=C4)C=C3)c1.[Cl-].[Cl-] [Compound 12, 5,15-bis-[3-(3-trimethylammonio-propyloxy)-phenyl]-porphyrin dichloride]	100	92	97	75	0.5	100	95	100	85	1.0	<1 (<10^−1)	>3 (>10^−3)	>6 (>10^−6)		Log reduction (E. coli ATCC 25922; [8]): <1 (<10^−1); Log reduction (E. coli ATCC 25922; photodynamic activity, 0.5 μM, illumination 15 min): <1 (<10^−1); Log reduction (E. coli ATCC 25922; [9]): >6 (>10^−6); chemical stability under stress test [1]: good stability; toxicity to bacterial cells compared to human skin cells ([4]; at a dose of 0.1 μM): preferentially toxic to bacterial cells compared to human skin cells; Log reduction ([5]; photodynamic activity, 0.005 μM, illumination 15 min): <2 (<10^−2)
CCCCCCCCCCCOc1ccc(-c2c3nc(c(-c4ccc(OCCC[N+](C)(C)C)cc4)c4ccc([nH]4)c(-c4ccc(OCCC[N+](C)(C)C)cc4)c4nc(c(-c5ccc(OCCC[N+](C)(C)C)cc5)c5ccc2[nH]5)C=C4)C=C3)cc1.[Cl-].[Cl-].[Cl-] [Compound 3, 5,10,15-tris-[4-(3-Trimethylammonio-propyloxy)-phenyl]-20-(4-undecyloxy-phenyl)-porphyrin trichloride, reference compound]											<1 (<10^−1)		>3 (>10^−3)	>3 (>10^−3)	inhibition at 3 µM ([6]; BAA44, 5 min, read-out: Growth inhibition (%), S. aureus, 5 min incubation, illumination time 5 min): 100%; inhibition at 3 µM ([6]; BAA44, read-out: Growth inhibition (%), S. aureus, 5 min incubation, illumination time 0 min): 21%; inhibition at 3 µM ([6]; BAA44, read-out: Growth inhibition (%), S. aureus, 5 min incubation, illumination time 1 min): 83%; inhibition at 3 µM ([6]; BAA44, read-out: Growth inhibition (%), S. aureus, 5 min incubation, illumination time 10 min): 100%; inhibition at 3 µM ([6]; BAA44, read-out: Growth inhibition (%), S. aureus, 5 min incubation, illumination time 15 min): 100%; inhibition at 3 µM ([6]; BAA44, read-out: Growth inhibition (%), S. aureus, 5 min incubation, illumination time 30 min): 100%; inhibition at 3 µM ([7]; ATCC25922, 5 min, read-out: Growth inhibition (%), E. coli, 5 min incubation, illumination time 5 min): 99%; inhibition at 3 µM ([7]; ATCC25922, read-out: Growth inhibition (%), E. coli, 5 min incubation, illumination time 0 min): 5%; inhibition at 3 µM ([7]; ATCC25922, read-out: Growth inhibition (%), E. coli, 5 min incubation, illumination time 1 min): 68%; inhibition at 3 µM ([7]; ATCC25922, read-out: Growth inhibition (%), E. coli, 5 min incubation, illumination time 10 min): 100%; inhibition at 3 µM ([7]; ATCC25922, read-out: Growth inhibition (%), E. coli, 5 min incubation, illumination time 15 min): 99%; inhibition at 3 µM ([7]; ATCC25922, read-out: Growth inhibition (%), E. coli, 5 min incubation, illumination time 30 min): 99%; Log reduction ([5]; photodynamic activity, 10 μM, illumination 15 min): >6 (>10^−6)
C[N+](C)(C)CCCOc1ccc(-c2c3nc(c(-c4ccc(OCCC[N+](C)(C)C)cc4)c4ccc([nH]4)c(-c4ccc(OCCC[N+](C)(C)C)cc4)c4nc(c(-c5ccc(OCCC[N+](C)(C)C)cc5)c5ccc2[nH]5)C=C4)C=C3)cc1.[Cl-].[Cl-].[Cl-].[Cl-] [Compound 1, 5,10,15,20-tetrakis-[4-(3-Trimethylammonio-propyloxy)-phenyl]-porphyrin tetrachloride, reference compound]	100	83	94	52	0.4	100	92	100	39	2		<1 (<10^−1)	>6 (>10^−6)	<1 (<10^−1)	toxicity to bacterial cells compared to human cells [4]: equal toxicity to bacterial and human cells
